This note sets out measurements from PubChem BioAssay AID1996.

By solubility (kinetic) is commonly meant solubility judged after dilution from a stock solution rather than from solid.

Values after ≈ are worked out from the molar mass of the structure shown.

For the series the following is noted: buffer; pH 7.4; 200.0 µM.
The compound `COc1cc2c(cc1OC)CN(CC(=O)NC(=O)NC(C)(C)C)CC2` had a solubility (kinetic) of 45.9 µg/mL (≈ 131 µM). As to `CC(=O)Nc1ccc(C(=O)OCC(=O)Nc2ccc(S(=O)(=O)N3CCOCC3)cc2)cc1`, the kinetic solubility was greater than 69.2 µg/mL. The same measure for `O=C(CCC(=O)N1CCCC1)Nc1ccc(Cl)c(Cl)c1`: 5.6 µg/mL (≈ 17.8 µM); for `CCCCN(C)c1c(N2CCC(C(=O)OCC)CC2)c(=O)c1=O`: greater than 48.4 µg/mL; for `COc1ccccc1NC(=O)Cn1cc(C(=O)c2ccco2)c2ccccc21`: 1.2 µg/mL (≈ 3.21 µM). `COC(=O)c1cccc(NC(=O)CC2NCCNC2=O)c1` (configuration not stated) came in with a kinetic solubility of 39.6 µg/mL (≈ 136 µM). Consider `Cc1cccc(C)c1NC(=O)C(=O)c1cn(C)c2ccccc12`, for which the kinetic solubility is less than 0.3 µg/mL. `COc1ccccc1NC(=O)NC1(C)CCS(=O)(=O)C1` (configuration not stated) returned a kinetic solubility greater than 44.8 µg/mL.

The compound `Cc1c(F)cccc1NC(=O)c1ccc2c(c1)CCN2S(C)(=O)=O` came in with a solubility (kinetic) of 4.4 µg/mL (≈ 12.6 µM).

As to `CC(NC(=O)c1cccs1)c1ccc(Cl)cc1` (configuration not stated), the solubility (kinetic) was determined as 9.8 µg/mL (≈ 36.9 µM). For `O=C(NCc1ccc(Cl)cc1)C1CCN(C(=O)c2ccco2)CC1`, the kinetic solubility was greater than 52 µg/mL. Take `COC(=O)c1ccc(S(=O)(=O)NCc2ccco2)o1`: the solubility (kinetic) was found to be 38.8 µg/mL (≈ 136 µM).

The compound `S=c1[nH]cnc2scc(-c3ccc(Cl)cc3)c12` showed a solubility (kinetic) of 0.5 µg/mL (≈ 1.79 µM). `CC(=O)N1CCC(C(=O)NCCOc2cccc(C)c2)CC1` gave a kinetic solubility greater than 45.7 µg/mL. Compound `COc1ccc([N+](=O)[O-])cc1NC(=O)CCN1CCOCC1` returned a solubility (kinetic) greater than 46.4 µg/mL. The same measure for `CC(C)N1CCN(Cc2cnc(-c3ccccc3)s2)CC1CCO` (configuration not stated): greater than 51.8 µg/mL. For the compound `CCOC(=O)c1sc(-c2ccc(C(F)(F)F)cc2)nc1O`, the kinetic solubility is greater than 47.6 µg/mL.

On to `CSCCNCc1c(C(=O)N2CCOCC2)nc2c(C)cccn12`, for which the kinetic solubility came to 46.1 µg/mL (≈ 132 µM). The same measure for `CN(C(=O)c1cc(-c2ccc3c(c2)OCO3)on1)c1ccccc1`: 6.8 µg/mL (≈ 21.1 µM); for `CC(C)S(=O)(=O)c1csc(NC(=O)Nc2ccc(Cl)cc2)c1Cl`: less than 0.4 µg/mL; for `Cc1c(N=Cc2cc3c(cc2[N+](=O)[O-])OCO3)cccc1[N+](=O)[O-]`: 6.5 µg/mL (≈ 19.7 µM).

The compound `O=C(c1ccco1)N1CCN(Cc2nc(Cc3ccccc3)no2)CC1` displayed a kinetic solubility of 37.7 µg/mL (≈ 107 µM). Take `O=c1[nH]c(=S)n(C2CCCCC2)c(O)c1C=NCCN1CCOCC1`: the kinetic solubility was found to be 53 µg/mL (≈ 145 µM). In the case of `Cc1cc(C(=O)N2CCc3ccccc3C2)c(C)o1`, the solubility (kinetic) was greater than 38.3 µg/mL.

The compound `O=C(NNC(=O)c1cccnc1)NC1CCCCC1` displayed a kinetic solubility greater than 39.3 µg/mL.

On to `Clc1nc2c(ccc3ccccc32)[nH]1`, for which the kinetic solubility was greater than 30.4 µg/mL. Consider `Cc1ccc(S(=O)(=O)N(C)c2ccc(OC(=O)c3cccs3)cc2)cc1`, for which the kinetic solubility turned out to be 1.2 µg/mL (≈ 3.1 µM). Regarding `O=C(O)C1CCCN1C(=O)C12CC3CC(CC(C3)C1)C2` (configuration not stated), the kinetic solubility is greater than 41.6 µg/mL. The value for `COc1ccc(S(=O)(=O)N2CN3CCN(C3)C2)cc1` was greater than 42.5 µg/mL; that for `Cc1ccnc(SC2CC(=O)N(c3ccc(Cl)cc3)C2=O)n1` (configuration not stated) was greater than 50.1 µg/mL. `COc1ccc(S(=O)(=O)Nc2ccc3c(c2)n(C)c(=O)n3C)cc1C` yielded a kinetic solubility greater than 54.2 µg/mL. For the compound `NS(=O)(=O)c1ccc(Sc2ccc3c(c2)CCC3)nc1`, the kinetic solubility was 2.5 µg/mL (≈ 8.16 µM). `O=c1c2ccccc2nc(-c2ccco2)n1CCc1ccc(O)cc1`: the kinetic solubility was 7.9 µg/mL (≈ 23.8 µM). With `COc1ccc([N+](=O)[O-])cc1NC(=O)C(C)OC(=O)Cc1ccc(OC)c(OC)c1` (configuration not stated), the solubility (kinetic) came to 31.1 µg/mL (≈ 74.3 µM). `CN(C)c1cccc(C(=O)OCC(=O)NC(=O)NCc2ccccc2)c1` displayed a solubility (kinetic) of 2.6 µg/mL (≈ 7.32 µM). For `COc1ccc(CNC2c3ccccc3-c3ccccc32)cc1OC`, the kinetic solubility stood at 31.4 µg/mL (≈ 94.7 µM). In turn, `CC(=O)c1cccc(NC(=O)N2CC(C)OC(C)C2)c1` (configuration not stated) came in with a kinetic solubility greater than 41.5 µg/mL. `CC(C)c1ccc(NS(=O)(=O)c2cccc3cccnc23)cc1` returned a kinetic solubility of less than 0.3 µg/mL. The same measure for `CC1CCCCN1S(=O)(=O)c1ccc(C(=O)N2CCOCC2)cc1` (configuration not stated): greater than 52.9 µg/mL; for `CCOC(=O)Cc1csc(NC(=O)c2c(C)noc2C)n1`: greater than 46.4 µg/mL.

Regarding `Cc1nc(SCCO)c([N+](=O)[O-])[nH]1`, the solubility (kinetic) is greater than 30.5 µg/mL. Consider `Oc1ccc(NC(=S)Nc2ccc(F)cc2)cc1`, for which the kinetic solubility was found to be 33.2 µg/mL (≈ 127 µM). Turning to `CCN(CC)S(=O)(=O)c1cccc(C(=O)Nc2cc(C)on2)c1`, the solubility (kinetic) is 13.4 µg/mL (≈ 39.7 µM). Compared with the last compound, the solubility kinetic is about 2.5-fold lower. `Cc1ccc(C2C(=O)NC(=O)NC2=O)cc1`: the solubility (kinetic) stood at 27.7 µg/mL (≈ 127 µM). The value for `COC(=O)c1cc2ccccc2n1Cc1ccc(Cl)nc1` was 1.5 µg/mL (≈ 4.99 µM). The value for `CC(C)c1nc2sc3c(=O)[nH]cnc3c2c2c1CCCC2` was less than 0.2 µg/mL.

As to `Cc1onc(-c2ccccc2)c1C(=O)N1CCCCCC1`, the solubility (kinetic) is greater than 42.7 µg/mL.

`O=C(NCc1cccc(F)c1)C1CCC(=O)N(C2CC2)C1` (configuration not stated) displayed a kinetic solubility greater than 43.6 µg/mL.

`CN(CCC1CCOCC1)Cc1nc(Cc2ccccc2F)no1` displayed a solubility (kinetic) greater than 50 µg/mL. The compound `O=C(NCC1CCCO1)c1ccc(COc2ccccc2)o1` (configuration not stated) displayed a solubility (kinetic) greater than 45.2 µg/mL. The value for `CC1(C)CC(=O)c2sc(NS(=O)(=O)c3ccc(Cl)cc3)nc2C1` was greater than 55.6 µg/mL; that for `Cc1oc(-c2cccs2)nc1CN1CCC(C(=O)N2CCCC2)CC1` was greater than 53.9 µg/mL. As for `COc1cccc(C(C)NC(=O)Cc2cccs2)c1` (configuration not stated), the kinetic solubility was greater than 41.3 µg/mL. Consider `Cn1c(=O)c2c(O)c(Cc3ccccc3)c(=O)n(C)c2n(C)c1=O`, for which the kinetic solubility is 36 µg/mL (≈ 110 µM).

Compound `Cc1ccc(NC(=O)N2CCCC(C(=O)O)C2)cc1` (configuration not stated) registered a kinetic solubility greater than 39.3 µg/mL. The value for `O=C(NCCN1CCOCC1)C1CC(=O)N(c2ccc(Cl)cc2)C1` (configuration not stated) was greater than 52.8 µg/mL. The value for `CN1CCCC(C(O)(c2ccccc2)c2ccccc2)C1` (configuration not stated) was 40.8 µg/mL (≈ 145 µM).

Regarding `COc1ccccc1N(CC(=O)Nc1ccc(C)cc1Cl)S(=O)(=O)c1cccs1`, the kinetic solubility came out at 6.9 µg/mL (≈ 15.3 µM). `CC(C)(C)S(=O)(=O)c1cnc(-c2ccc(Cl)cc2)nc1N` gave a solubility (kinetic) of less than 0.2 µg/mL. The compound `O=C(O)CCCCNS(=O)(=O)/C=C/c1ccccc1` gave a solubility (kinetic) greater than 42.5 µg/mL. `O=C(Nc1cccnc1)OCc1ccccc1` registered a kinetic solubility of 23 µg/mL (≈ 101 µM).

With `Cn1c(=O)c2ccccc2n(CC(=O)NC2CCCCC2)c1=O`, the solubility (kinetic) is 8 µg/mL (≈ 25.4 µM). In turn, `CNC(=O)c1cccc2nc3ccccc3nc12` came in with a kinetic solubility greater than 35.6 µg/mL. The value for `CC(Sc1ccccc1)C(=O)N(CCC#N)Cc1cccnc1` (configuration not stated) was greater than 48.8 µg/mL; that for `NC(=O)Cn1cnc2nc3n(c2c1=O)CCC3` was greater than 35 µg/mL; that for `Cc1occc1C(=O)Nc1cccc(S(=O)(=O)N2CCOCC2)c1` was 52.2 µg/mL (≈ 149 µM). `CSc1nc(C)nc(N/C=C(\C#N)S(=O)(=O)c2ccccc2Cl)n1` registered a solubility (kinetic) of 15.6 µg/mL (≈ 40.9 µM). In turn, `COc1ccc(NC(=S)Nc2cnc3ccccc3c2)c(OC)c1` yielded a kinetic solubility of 45.1 µg/mL (≈ 133 µM). On to `CCCc1cc(=O)[nH]c(SCC(=O)NCc2ccc3c(c2)OCO3)n1`, for which the solubility (kinetic) is greater than 54.2 µg/mL.

`COc1ccccc1C(=O)Nc1sc2c(c1C(N)=O)CCCC2` returned a solubility (kinetic) of less than 0.4 µg/mL. The value for `CCn1cnc2cc(NCc3ccc(Cl)cc3)ccc21` was 34 µg/mL (≈ 119 µM); that for `CCOC(=O)N1CCN(CC(=O)Nc2ccc(F)cc2F)CC1` was greater than 49.1 µg/mL.

`CN(C)CCCOC(=O)c1sc2ccccc2c1Cl.Cl` returned a solubility (kinetic) greater than 50.1 µg/mL. The same measure for `CCOC(=O)N1CCN(C(=O)c2c(N)no[n+]2[O-])CC1`: greater than 42.8 µg/mL. In turn, `CCN(CC)C(=O)c1cccc(NC(=O)C2=COCCO2)c1` had a solubility (kinetic) greater than 45.7 µg/mL.

For `O=C(O)c1ccccc1C(=O)N(c1ccccc1)c1ccccc1`, the kinetic solubility worked out at 46.8 µg/mL (≈ 147 µM). Compound `CSc1ccccc1NC(=O)C1=COCCO1` showed a kinetic solubility greater than 37.7 µg/mL.

Regarding `O=C(CN1C(=O)/C(=C2/SC(=S)N(CCS(=O)(=O)O)C2=O)c2ccccc21)Nc1cccc(Br)c1`, the solubility (kinetic) stood at 14.3 µg/mL (≈ 24.6 µM). The compound `CSc1ccc(CN(C)C(=O)c2cc(=O)c3ccccc3o2)cc1` registered a kinetic solubility greater than 50.9 µg/mL. `CC1(C)Cc2nc(-c3ccccc3)nc(SCC(O)CO)c2CO1` (configuration not stated) came in with a kinetic solubility of 51.7 µg/mL (≈ 149 µM).

`O=C(O)CSc1nccc2ccccc12` gave a kinetic solubility greater than 32.9 µg/mL. As to `O=C(NCCc1ccccc1)c1cc([N+](=O)[O-])ccc1N1CCOCC1`, the kinetic solubility came out at 53.2 µg/mL (≈ 150 µM). The same measure for `Nc1cc(Cl)ccc1C(=O)OCC(=O)N1CCCC1`: 21.4 µg/mL (≈ 75.7 µM). As to `CC(Oc1ccc(F)cc1)C(O)CCN(C)C` (configuration not stated), the kinetic solubility stood at 25.8 µg/mL (≈ 107 µM). In turn, `O=C(Nc1ccc(C2CC2(Cl)Cl)cc1)c1cccc([N+](=O)[O-])c1` (configuration not stated) displayed a kinetic solubility of less than 0.4 µg/mL.

On to `CC(C)(C)n1cnc2cc(NC(=O)c3ccco3)ccc21`, for which the solubility (kinetic) stood at 41.1 µg/mL (≈ 145 µM). For `COc1cc2sc(NC(=O)c3ccco3)nc2cc1Cl`, the solubility (kinetic) is less than 0.3 µg/mL. On to `CCn1c(=S)[nH]c2cc(S(=O)(=O)N3CCOCC3)ccc21`, for which the solubility (kinetic) was found to be 34.2 µg/mL (≈ 104 µM). The value for `O=C(CSc1nc(C2CC2)nc2ccccc12)Nc1ccccc1` was less than 0.2 µg/mL; that for `CCC(Oc1ccc(C)cc1)C(=O)Nc1ccc2c(c1)n(C)c(=O)n2C` (configuration not stated) was greater than 53 µg/mL; that for `O=C(NCCNc1ccc([N+](=O)[O-])cc1)c1ccccc1F` was 3.8 µg/mL (≈ 12.5 µM). On to `Cc1cccc(Nc2nnc(SCC(=O)NCC3CCCO3)s2)c1C` (configuration not stated), for which the kinetic solubility is greater than 56.8 µg/mL. The same measure for `Cc1ccc2nc(/N=C(\N)NC(=O)NC3CCCCC3)nc(C)c2c1`: 8 µg/mL (≈ 23.5 µM). `COC(=O)c1nn(-c2cccc(Cl)c2)cc(OC)c1=O`: the kinetic solubility was greater than 44.2 µg/mL. For the compound `Cc1cc(Cl)ccc1NC(=O)/C=N/O`, the kinetic solubility is greater than 31.9 µg/mL. The same measure for `CCC(CC)C(=O)NCc1ccc(Cl)cc1`: greater than 36 µg/mL; for `COc1ccccc1N(C)S(=O)(=O)c1ccc(C(=O)Nc2cc(F)ccc2C)cc1`: 7.5 µg/mL (≈ 17.5 µM). For the compound `CCCS(=O)(=O)NCCc1csc(-c2ccc(OC)c(OC)c2)n1`, the solubility (kinetic) is 51.7 µg/mL (≈ 140 µM). For `O=C(O)CSC1CC(=O)N(c2ccc(Br)cc2)C1=O` (configuration not stated), the solubility (kinetic) is greater than 51.6 µg/mL.

The compound `CCOC(=O)C(=O)Nc1ccccc1C(=O)OCC` displayed a kinetic solubility greater than 39.8 µg/mL. For the compound `O=C(O/N=C1/CCCc2occc21)c1ccc(F)cc1`, the kinetic solubility stood at 0.9 µg/mL (≈ 3.29 µM).

In turn, `CCOC(=O)c1c(C)[nH]c(C)c1C(=O)COC(=O)/C=C/c1ccco1` gave a solubility (kinetic) greater than 51.8 µg/mL.
